The source of these data is ChEMBL document CHEMBL1146329, “Structure-activity relationship in the 3-iodo-4-phenoxypyridinone (IOPY) series: The nature of the C-3 substituent on anti-HIV activity” (Bioorg Med Chem Lett, 2007).

In test [1] the test system is Human immunodeficiency virus 1. Briefly: Antiviral activity against HIV1 LAI assessed as inhibition of viral-induced cytopathicity in MT4 cells by MTT method. It is filed as functional, organism-based. The note with it: Human immunodeficiency virus 1, LAI.
The nature of test [2]: Selectivity index, ratio of CC50 for MT4 cells to IC50 for HIV1 LAI. It counts as functional.
Test [3] deals with Human immunodeficiency virus 1. Briefly: Antiviral activity against HIV1 RT 103N/181C mutant assessed as inhibition of viral-induced cytopathicity in MT4 cells by MTT method. It is filed as functional, organism-based. The note with it: Human immunodeficiency virus 1, MT4.
The test system of test [4] is Human immunodeficiency virus 1. Description: Antiviral activity against HIV1 RT 188L mutant assessed as inhibition of viral-induced cytopathicity in MT4 cells by MTT method. The note with it: Human immunodeficiency virus 1, MT4. It counts as functional, organism-based.
In test [5] the test system is Human immunodeficiency virus 1. Briefly: Antiviral activity against HIV1 RT 100I/103N mutant assessed as inhibition of viral-induced cytopathicity in MT4 cells by MTT method. It counts as functional, organism-based. As to conditions: Human immunodeficiency virus 1, MT4.
The subject of test [6] is Human immunodeficiency virus 1. Briefly: Antiviral activity against HIV1 RT 100I mutant assessed as inhibition of viral-induced cytopathicity in MT4 cells by MTT method. The note with it: Human immunodeficiency virus 1, MT4. It counts as functional, organism-based.
The test system of test [7] is Human immunodeficiency virus 1. Description: Antiviral activity against HIV1 RT 181C mutant assessed as inhibition of viral-induced cytopathicity in MT4 cells by MTT method. It is filed as functional, organism-based. The note with it: Human immunodeficiency virus 1, MT4.
For test [8], the system named is Human immunodeficiency virus 1. Description: Antiviral activity against HIV1 with RT 103N mutant assessed as inhibition of viral-induced cytopathicity in MT4 cells by MTT method. The note with it: Human immunodeficiency virus 1, MT4. It counts as functional, organism-based.

In the case of `CCc1c(Oc2cc(C)cc(C)c2)cc(=O)[nH]c1C`, the 50% inhibitory concentration (IC50) in test [1] amounted to 398 nM.

Turning to `CCc1c(C)[nH]c(=O)c(/C=N/O)c1Oc1cc(C)cc(C)c1`, in test [1], the half-inhibitory concentration (IC50) was found to be 31.6 nM.

As to `CCc1c(C)[nH]c(=O)c(CO)c1Oc1cc(C)cc(C)c1`, in test [1], the 50% inhibitory concentration (IC50) was 19.9 nM. Also, the “Ratio CC50/IC50” value in test [2] came to 5012.

As for `CCc1c(C)[nH]c(=O)c(SC)c1Oc1cc(C)cc(C)c1`, the IC50 in test [3] amounted to 31.6 nM; in test [4], 125 nM; in test [1], 1.99 nM; in test [5], 63.1 nM; in test [6], 19.9 nM; in test [7] it was 31.6 nM. Further, in test [8], the IC50 turned out to be 31.6 nM. The “Ratio CC50/IC50” value in test [2] is given as 25119.

Consider `CCc1c(C)[nH]c(=O)c(Sc2ccccc2)c1Oc1cc(C)cc(C)c1`, for which the half-inhibitory concentration (IC50) in test [3] is 1580 nM; in test [4], 794 nM; in test [1] it was 10 nM; in test [5], 1580 nM; in test [6], 125 nM; in test [7], 158 nM. The IC50 in test [8] was 794 nM. In addition, the “Ratio CC50/IC50” value in test [2] was 5012.

`CCc1c(C)[nH]c(=O)c(OC)c1Oc1cc(C)cc(C)c1`: the half-maximal inhibitory concentration (IC50) came to 501 nM in test [3]; 794 nM in test [4]; 2.5 nM in test [1]; 316 nM in test [5]; 31.6 nM in test [6]; 158 nM in test [7]. In test [8], the half-inhibitory concentration (IC50) stood at 79.4 nM. Moreover, the “Ratio CC50/IC50” value in test [2] is reported as 39811.

For `CCc1c(C)[nH]c(=O)c(C(F)(F)F)c1Oc1cc(C)cc(C)c1`, the IC50 in test [4] was determined as 199 nM; in test [1], 3.1 nM; in test [6], 31.6 nM; in test [7], 50.1 nM; in test [8], 12.5 nM. Besides, the “Ratio CC50/IC50” value in test [2] was 12589.

With `CCc1c(C)[nH]c(=O)c(I)c1Oc1cc(C)cc(C)c1`, the half-maximal inhibitory concentration (IC50) worked out at 39.8 nM in test [3]; 50.1 nM in test [4]; 1.25 nM in test [1]; 19.9 nM in test [5]; 6.31 nM in test [6]; 19.9 nM in test [7]. Also, the 50% inhibitory concentration (IC50) in test [8] amounted to 3.16 nM. Further, in test [2], the “Ratio CC50/IC50” value is 9000.

Take `C/C=C/c1c(Oc2cc(C)cc(C)c2)c(CC)c(C)[nH]c1=O`: the IC50 in test [1] was 39.8 nM.

For the molecule `CCc1c(C)[nH]c(=O)c(C#Cc2ccccc2)c1Oc1cc(C)cc(C)c1`, the concentration for half-maximal inhibition (IC50) in test [1] was 15800 nM.

`CCSc1c(Oc2cc(C)cc(C)c2)c(CC)c(C)[nH]c1=O`: the 50% inhibitory concentration (IC50) in test [1] was 125 nM.

As for `CCc1c(C)[nH]c(=O)c(C(=O)N(C)C)c1Oc1cc(C)cc(C)c1`, the concentration for half-maximal inhibition (IC50) in test [1] is 5020 nM.

As to `CCc1c(C)[nH]c(=O)c(C#N)c1Oc1cc(C)cc(C)c1`, the IC50 in test [1] stood at 79.4 nM.

Consider `CCc1c(C)[nH]c(=O)c(Br)c1Oc1cc(C)cc(C)c1`, for which the 50% inhibitory concentration (IC50) was 158 nM in test [3]; 631 nM in test [4]; 1.99 nM in test [1]; 63.1 nM in test [5]; 63.1 nM in test [7]; 39.8 nM in test [8]. In test [2], the “Ratio CC50/IC50” value turned out to be 90119.

Turning to `CCc1c(C)[nH]c(=O)c(Cl)c1Oc1cc(C)cc(C)c1`, the half-maximal inhibitory concentration (IC50) in test [4] was found to be 398 nM; in test [1], 6.3 nM; in test [6] it was 31.6 nM; in test [7], 100 nM; in test [8], 19.9 nM. In test [2], the “Ratio CC50/IC50” value amounted to 10000.

`C=Cc1c(Oc2cc(C)cc(C)c2)c(CC)c(C)[nH]c1=O`: the IC50 was determined as 200 nM in test [3]; 12.5 nM in test [4]; 3.1 nM in test [1]; 6.3 nM in test [6]; 19.9 nM in test [7]; 3.1 nM in test [8]. Besides, the “Ratio CC50/IC50” value in test [2] is 6309.

Regarding `CCc1c(C)[nH]c(=O)c(SCCC(N)=O)c1Oc1cc(C)cc(C)c1`, the 50% inhibitory concentration (IC50) in test [4] worked out at 2510 nM; in test [1] it was 12.5 nM; in test [6], 158 nM; in test [7], 794 nM; in test [8], 316 nM. Moreover, the “Ratio CC50/IC50” value in test [2] is recorded as 1995.

As for `CCc1c(C)[nH]c(=O)c(C2CC2)c1Oc1cc(C)cc(C)c1`, the IC50 in test [4] is 158 nM; in test [1] it was 6.3 nM; in test [6] it was 39.8 nM; in test [7] it was 158 nM; in test [8] it was 199 nM. Besides, the “Ratio CC50/IC50” value in test [2] was determined as 1259.

Regarding `CCOC(=O)c1c(Oc2cc(C)cc(C)c2)c(CC)c(C)[nH]c1=O`, the IC50 in test [1] stood at 631 nM.

With `CCOC(=O)/C=C/c1c(Oc2cc(C)cc(C)c2)c(CC)c(C)[nH]c1=O`, the half-maximal inhibitory concentration (IC50) in test [1] came out at 6310 nM.

On to `CCc1c(C)[nH]c(=O)c(/C=C/CO)c1Oc1cc(C)cc(C)c1`, for which, in test [1], the half-maximal inhibitory concentration (IC50) was 63.1 nM.

For `CCc1c(C)[nH]c(=O)c(/C=C/I)c1Oc1cc(C)cc(C)c1`, the IC50 in test [1] is 100 nM.

Regarding `CCc1c(C)[nH]c(=O)c(-c2ccco2)c1Oc1cc(C)cc(C)c1`, the 50% inhibitory concentration (IC50) in test [1] was determined as 15.8 nM. Also, the “Ratio CC50/IC50” value in test [2] amounted to 126.

For the molecule `CCc1c(C)[nH]c(=O)c(CC)c1Oc1cc(C)cc(C)c1`, the IC50 in test [4] is 63.1 nM; in test [1], 3.1 nM; in test [6] it was 12.5 nM; in test [7] it was 39.8 nM; in test [8] it was 39.8 nM. The “Ratio CC50/IC50” value in test [2] came out at 3162.

As to `CCc1c(C)[nH]c(=O)c(-c2ccsc2)c1Oc1cc(C)cc(C)c1`, the IC50 in test [1] amounted to 50.1 nM.

Regarding `CCc1c(C)[nH]c(=O)c([S+](C)[O-])c1Oc1cc(C)cc(C)c1` (stereo unspecified), the IC50 in test [1] was 15.8 nM. Further, the “Ratio CC50/IC50” value in test [2] came to 6309.

On to `CCc1c(C)[nH]c(=O)c(C(C)C)c1Oc1cc(C)cc(C)c1`, for which the IC50 amounted to 31.6 nM in test [4]; 19.9 nM in test [1]; 12.5 nM in test [6]; 39.8 nM in test [7]; 39.8 nM in test [8]. For the same molecule, the “Ratio CC50/IC50” value in test [2] was 5012.

As to `O=C1Nc2ccc(Cl)cc2C(C#CC2CC2)(C(F)(F)F)O1` (single isomer, unassigned) [EFAVIRENZ], in test [5], the 50% inhibitory concentration (IC50) was determined as 1000 nM.
